Converted amounts (≈) assume the structure as drawn. Where a SMILES comes first, the peptide text is derived from it.

Test [1] has as its system P388. The test can be described thus: T/C at 25 mg/kg. The test is classed as functional, Mus musculus.
Test [2] deals with P388. Nature of the test: T/C at 150 ug/kg. The test is classed as functional, Mus musculus.
For test [3], the system named is P388. Nature of the test: Effect on P388 lymphocytic leukemia (PS system) cell growth. The test is classed as functional. To be noted: Mus musculus, read-out: ED50 (the source's name).
The subject of test [4] is P388. The test can be described thus: Effect on change in life span of P388 lymphocytic leukemia (PS system) cell growth at 100 mg/kg. The test is classed as functional, Mus musculus.
The subject of test [5] is P388. The test can be described thus: Effect on P388 lymphocytic leukemia (PS system) cell growth […]. It is filed as functional. To be noted: Mus musculus, read-out: ED50 (the source's name).

In turn, `C=C1C[C@@H]2CC[C@@]34C[C@H]5O[C@H]6[C@@H](O3)[C@H]3O[C@H](CC[C@@H]3O[C@H]6[C@H]5O4)CC(=O)O[C@@H]3[C@@H](C)[C@@H]4O[C@@H]5C[C@]6(C[C@@H]7O[C@]8(C[C@H](C)[C@@H]9O[C@H]([C@@H](O)C[C@@H](O)CO)C[C@@H]9O8)C[C@H](C)[C@@H]7O6)O[C@@H]5C[C@@H]4O[C@H]3C[C@H]3O[C@@H](CC[C@@H]1O2)C[C@@H](C)C3=C` [HALICHONDRIN B] returned a T/C in test [1] of 238.
In test [2], `C=C1C[C@@H]2CC[C@@]34C[C@H]5O[C@H]6[C@@H](O3)[C@H]3O[C@H](CC[C@@H]3O[C@H]6[C@H]5O4)CC(=O)O[C@@H]3[C@@H](C)[C@@H]4O[C@@H]5C[C@]6(C[C@@H]7O[C@]8(C[C@H](C)[C@@H]9O[C@@H]%10CC(C(O)CO)O[C@@H]%10C[C@@H]9O8)C[C@H](C)[C@@H]7O6)O[C@@H]5C[C@@H]4O[C@H]3C[C@H]3O[C@@H](CC[C@@H]1O2)C[C@@H](C)C3=C` (stereo not given in full) [HOMOHALICHONDRIN B] returned a T/C of 285.
Consider `CC(C)O.ClCCl`, for which the EC50 in test [3] is 2.5 µg/mL. In test [4], this molecule showed a Life span of 10%.
For the molecule `CC(C)[C@@H]1NC(=O)[C@H](Cc2ccccc2)NC(=O)[C@@H]2CCCN2C(=O)[C@H](CC(N)=O)NC(=O)[C@H](C(C)C)NC(=O)[C@@H]2CCCN2C(=O)[C@H](C(C)C)NC1=O` (cyclo(FVVPVNP)), the EC50 in test [5] stood at 0.21 µg/mL (≈ 0.279 µM).

Source of the values: ChEMBL document CHEMBL1125802, “Isolation and structure of the cell growth inhibitory constituents from the western Pacific marine sponge Axinella sp” (1991).
